Assay results: patent US10065956B2, “Ethynyl derivatives” (Hoffmann-La Roche Inc., priority 2015, dated 2018)

Molecular target: T1, human mGlu4 receptor (Homo sapiens, UniProt Q14833)
T1 construct: expressed in transfected cells; host or cells: monoclonal HEK-293 cell line, stably transfected
Assay: Ca2+ mobilization in vitro assay on recombinant human mGlu4 expressed in HEK293 cells (PAM, L-AP4 at EC20)
Type: cell-based
Settings: for Emax: HEK293, maximal response in % of the maximal stimulatory effect obtained with saturating concentrations of L-AP4, read-out: Eff. (%); for EC50: HEK293 cells expressing human mGlu4, L-AP4 added at EC20
Source text: FIG. 1: Illustration of the experimental outline for mGlu4 PAM Ca2+ mobilization screening assay and the determination of EC50 and % Emax values.
Determination of EC50 Values Using a Ca2+ Mobilization In Vitro Assay on Recombinant Human mGlu4 Expressed in HEK293 Cells:
A monoclonal HEK-293 cell line stably transfected with a cDNA encoding for the human mGlu4 receptor was generated; for the work with mGlu4 Positive Allosteric Modulators (PAMs), a cell line with low receptor expression levels and low constitutive receptor activity was selected to allow the differentiation of agonistic versus PAM activity. Cells were cultured according to standard protocols (Freshney, 2000) in Dulbecco's Modified Eagle Medium with high glucose supplemented with 1 mM glutamine, 10% (vol/vol) heat-inactivated bovine calf serum, Penicillin/Streptomycin, 50 μg/ml hygromycin and 15 μg/ml blasticidin (all cell culture reagents and antibiotics from Invitrogen, Basel, Switzerland).
About 24 hrs before an experiment, 5×10^4 cells/well were seeded in poly-D-lysine coated, black/clear-bottomed 96-well plates. The cells were loaded with 2.5 μM Fluo-4AM in loading buffer (1×HBSS, 20 mM HEPES) for 1 hr at 37° C. and washed five times with loading buffer. The cells were transferred into a Functional Drug Screening System 7000 (Hamamatsu, Paris, France), and 11 half logarithmic serial dilutions of test compound at 37° C. were added and the cells were incubated for 10-30 min. with on-line recording of fluorescence. Following this pre-incubation step, the agonist (2S)-2-amino-4-phosphonobutanoic acid (L-AP4) was added to the cells at a concentration corresponding to EC20 with on-line recording of fluorescence; in order to account for day-to-day variations in the responsiveness of cells, the EC20 of L-AP4 was determined immediately ahead of each experiment by recording of a full dose-response curve of L-AP4. Responses were measured as peak increase in fluorescence minus basal (i.e. fluorescence without addition of L-AP4), normalized to the maximal stimulatory effect obtained with saturating concentrations of L-AP4. Graphs were plotted with the % maximal stimulatory using XLfit, a curve fitting program that iteratively plots the data using Levenburg Marquardt algorithm. The single site competition analysis equation used was y=A+((B−A)/(1+((x/C)D))), where y is the % maximal stimulatory effect, A is the minimum y, B is the maximum y, C is the EC50, x is the log 10 of the concentration of the competing compound and D is the slope of the curve (the Hill Coefficient). From these curves the EC50 (drug concentration at which 50% of the maximal receptor activation was achieved), the Hill coefficient as well as the maximal response in % of the maximal stimulatory effect obtained with saturating concentrations of L-AP4 were calculated (see FIG. 1). […] A depression of the signal observed after addition of the EC20 concentration of L-AP4 was indicative of an inhibitory activity of the test compound.

T1 sequence (Q14833 33-912): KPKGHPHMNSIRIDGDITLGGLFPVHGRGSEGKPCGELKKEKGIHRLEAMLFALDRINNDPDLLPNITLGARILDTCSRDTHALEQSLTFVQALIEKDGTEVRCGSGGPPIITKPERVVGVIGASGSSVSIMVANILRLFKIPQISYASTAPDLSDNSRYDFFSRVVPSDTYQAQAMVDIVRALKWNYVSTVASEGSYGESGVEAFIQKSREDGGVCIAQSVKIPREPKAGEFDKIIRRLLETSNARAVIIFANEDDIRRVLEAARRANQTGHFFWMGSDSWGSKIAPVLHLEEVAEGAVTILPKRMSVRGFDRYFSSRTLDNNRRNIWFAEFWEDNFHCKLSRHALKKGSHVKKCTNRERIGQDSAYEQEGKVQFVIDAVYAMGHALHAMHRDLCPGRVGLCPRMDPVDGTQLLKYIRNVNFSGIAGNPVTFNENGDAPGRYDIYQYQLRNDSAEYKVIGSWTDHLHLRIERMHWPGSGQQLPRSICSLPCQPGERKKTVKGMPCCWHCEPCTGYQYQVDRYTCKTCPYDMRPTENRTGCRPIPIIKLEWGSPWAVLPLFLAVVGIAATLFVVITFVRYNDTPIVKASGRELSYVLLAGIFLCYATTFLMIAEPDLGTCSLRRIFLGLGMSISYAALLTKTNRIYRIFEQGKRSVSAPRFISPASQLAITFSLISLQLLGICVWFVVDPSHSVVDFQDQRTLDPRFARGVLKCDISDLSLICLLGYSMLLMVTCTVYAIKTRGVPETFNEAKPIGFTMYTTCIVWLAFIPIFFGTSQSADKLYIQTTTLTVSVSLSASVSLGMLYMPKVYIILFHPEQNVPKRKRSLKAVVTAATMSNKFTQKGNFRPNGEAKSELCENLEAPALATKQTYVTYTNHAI

Compound | Emax | EC50
CN1C(=O)N(c2c(F)cc(C#Cc3cccc(F)c3)cc2F)C(=O)C[C@@]1(C)c1cn[nH]c1 [Example 59, (6S)-3-[2,6-Difluoro-4-[2-(3-fluorophenyl)ethynyl]phenyl]-1,6-dimethyl-6-(1H-pyrazol-4-yl)hexahydropyrimidine-2,4-dione] | 160% | 44 nM
CN1C(=O)N(c2c(F)cc(C#Cc3ccc(F)cc3)cc2F)C(=O)C[C@@]1(C)c1cnn(C)c1 [Example 49, (6S)-3-[2,6-Difluoro-4-[2-(4-fluorophenyl)ethynyl]phenyl]-1,6-dimethyl-6-(1-methylpyrazol-4-yl)hexahydropyrimidine-2,4-dione] | 142% | 55 nM
CN1C(=O)N(c2c(F)cc(C#Cc3ccccc3)cc2F)C(=O)C[C@@]1(C)c1ccn(C2CCOC2)n1 (mixture of isomers) [Example 64, (6S)-3-[2,6-Difluoro-4-(2-phenylethynyl)phenyl]-1,6-dimethyl-6-[1-[(3RS)-tetrahydrofuran-3-yl]pyrazol-3-yl]hexahydropyrimidine-2,4-dione] | 98% | 88 nM
CN1C(=O)N(c2c(F)cc(C#Cc3cccnc3)cc2F)C(=O)C[C@@]1(C)c1cn[nH]c1 [Example 36, (6S)-3-[2,6-Difluoro-4-[2-(3-pyridyl)ethynyl]phenyl]-1,6-dimethyl-6-(1H-pyrazol-4-yl)hexahydropyrimidine-2,4-dione] | 164% | 41 nM
CN1C(=O)N(c2c(F)cc(C#Cc3ccc(F)cc3F)cc2F)C(=O)C[C@@]1(C)c1cnn(C)c1 [Example 58, (6S)-3-[4-[2-(2,4-Difluorophenyl)ethynyl]-2,6-difluoro-phenyl]-1,6-dimethyl-6-(1-methylpyrazol-4-yl)hexahydropyrimidine-2,4-dione] | 139% | 80 nM
CC(C)n1cc([C@]2(C)CC(=O)N(c3c(F)cc(C#Cc4ccccc4)cc3F)C(=O)N2C)cn1 [Example 19, (6S)-3-[2,6-Difluoro-4-(2-phenylethynyl)phenyl]-6-(1-isopropylpyrazol-4-yl)-1,6-dimethyl-hexahydropyrimidine-2,4-dione] | 139% | 36 nM
CN1C(=O)N(c2c(F)cc(C#Cc3ccccc3)cc2F)C(=O)C[C@@]1(C)c1ccsn1 [Example 38, (6S)-3-[2,6-Difluoro-4-(2-phenylethynyl)phenyl]-6-isothiazol-3-yl-1,6-dimethyl-hexahydropyrimidine-2,4-dione] | 152% | 39 nM
CN1C(=O)N(c2c(F)cc(C#Cc3ccccc3)cc2F)C(=O)C[C@@]1(C)c1cnsc1 [Example 15, (6S)-3-[2,6-Difluoro-4-(2-phenylethynyl)phenyl]-6-isothiazol-4-yl-1,6-dimethyl-hexahydropyrimidine-2,4-dione] | 167% | 38 nM
CN1C(=O)N(c2c(F)cc(C#Cc3ccccc3)cc2F)C(=O)C[C@@]1(C)c1cnn(CC(C)(C)O)c1 [Example 60, (6S)-3-[2,6-Difluoro-4-(2-phenylethynyl)phenyl]-6-[1-(2-hydroxy-2-methyl-propyl)pyrazol-4-yl]-1,6-dimethyl-hexahydropyrimidine-2,4-dione] | 142% | 47 nM
CN1C(=O)N(c2c(F)cc(C#Cc3ccccc3)cc2F)C(=O)C[C@@]1(C)c1ccon1 [Example 40, (6S)-3-[2,6-Difluoro-4-(2-phenylethynyl)phenyl]-6-isoxazol-3-yl-1,6-dimethyl-hexahydropyrimidine-2,4-dione] | 142% | 37 nM
CN1C(=O)N(c2c(F)cc(C#Cc3ccccc3)cc2F)C(=O)C[C@@]1(C)c1cn[nH]c1 [Example 16, (6S)-3-[2,6-Difluoro-4-(2-phenylethynyl)phenyl]-1,6-dimethyl-6-(1H-pyrazol-4-yl)hexahydropyrimidine-2,4-dione] | 131% | 36 nM
CN1C(=O)N(c2c(F)cc(C#Cc3ccccc3)cc2F)C(=O)C[C@@]1(C)c1cn(C)nn1 [Example 34, (6S)-3-[2,6-Difluoro-4-(2-phenylethynyl)phenyl]-1,6-dimethyl-6-(1-methyltriazol-4-yl)hexahydropyrimidine-2,4-dione] | 207% | 71 nM
COCCn1cc([C@]2(C)CC(=O)N(c3c(F)cc(C#Cc4ccccc4)cc3F)C(=O)N2C)cn1 [Example 20, (6S)-3-[2,6-Difluoro-4-(2-phenylethynyl)phenyl]-6-[1-(2-methoxyethyl)pyrazol-4-yl]-1,6-dimethyl-hexahydropyrimidine-2,4-dione] | 137% | 54 nM
CN1C(=O)N(c2c(F)cc(C#Cc3ccccc3)cc2F)C(=O)C[C@@]1(C)c1nccs1 [Example 1, (6S)-3-[2,6-Difluoro-4-(2-phenylethynyl)phenyl]-1,6-dimethyl-6-thiazol-2-yl-hexahydropyrimidine-2,4-dione] | 119% | 113 nM

Other lines, results leading:

Emax | EC50 | Compound
143% | 44 nM | CN1C(=O)N(c2c(F)cc(C#Cc3ccc(F)cc3F)cc2F)C(=O)C[C@@]1(C)c1cn[nH]c1 [Example 56, (6S)-3-[4-[2-(2,4-Difluorophenyl)ethynyl]-2,6-difluoro-phenyl]-1,6-dimethyl-6-(1H-pyrazol-4-yl)hexahydropyrimidine-2,4-dione]
165% | 123 nM | CN1C(=O)N(c2c(F)cc(C#Cc3ccccc3)cc2F)C(=O)C[C@@]1(C)c1ccno1 [Example 41, (6S)-3-[2,6-Difluoro-4-(2-phenylethynyl)phenyl]-6-isoxazol-5-yl-1,6-dimethyl-hexahydropyrimidine-2,4-dione]
136% | 70 nM | COCCCn1cc([C@]2(C)CC(=O)N(c3c(F)cc(C#Cc4ccccc4)cc3F)C(=O)N2C)cn1 [Example 21, (6S)-3-[2,6-Difluoro-4-(2-phenylethynyl)phenyl]-6-[1-(3-methoxypropyl)pyrazol-4-yl]-1,6-dimethyl-hexahydropyrimidine-2,4-dione]
148% | 71 nM | Cc1ncc([C@]2(C)CC(=O)N(c3c(F)cc(C#Cc4ccccc4)cc3F)C(=O)N2C)s1 [Example 39, (6S)-3-[2,6-Difluoro-4-(2-phenylethynyl)phenyl]-1,6-dimethyl-6-(2-methylthiazol-5-yl)hexahydropyrimidine-2,4-dione]
136% | 71 nM | CN1C(=O)N(c2c(F)cc(C#Cc3cccc(F)c3)cc2F)C(=O)C[C@@]1(C)c1cnn(C)c1 [Example 47, (6S)-3-[2,6-Difluoro-4-[2-(3-fluorophenyl)ethynyl]phenyl]-1,6-dimethyl-6-(1-methylpyrazol-4-yl)hexahydropyrimidine-2,4-dione]
175% | 112 nM | CN1C(=O)N(c2ccc(C#Cc3ccccc3)cc2Cl)C(=O)C[C@@]1(C)c1cnn(C)c1 [Example 37, (6S)-3-[2-Chloro-4-(2-phenylethynyl)phenyl]-1,6-dimethyl-6-(1-methylpyrazol-4-yl)hexahydropyrimidine-2,4-dione]
138% | 94 nM | Cc1nc(C2(C)CC(=O)N(c3c(F)cc(C#Cc4ccccc4)cc3F)C(=O)N2C)cs1 (racemic) [Example 3, (6RS)-3-[2,6-Difluoro-4-(2-phenylethynyl)phenyl]-1,6-dimethyl-6-(2-methylthiazol-4-yl)hexahydropyrimidine-2,4-dione]
146% | 69 nM | CN1C(=O)N(c2c(F)cc(C#Cc3ccccc3)cc2F)C(=O)C[C@@]1(C)c1ccn(C)n1 [Example 26, (6S)-3-[2,6-Difluoro-4-(2-phenylethynyl)phenyl]-1,6-dimethyl-6-(1-methylpyrazol-3-yl)hexahydropyrimidine-2,4-dione]
115% | 64 nM | CCn1cc([C@]2(C)CC(=O)N(c3c(F)cc(C#Cc4ccccc4)cc3F)C(=O)N2C)cn1 [Example 13, (6S)-3-[2,6-Difluoro-4-(2-phenylethynyl)phenyl]-6-(1-ethylpyrazol-4-yl)-1,6-dimethyl-hexahydropyrimidine-2,4-dione]
